Reference: patent publication US20240158446A1, “CYCLIC COMPOUND HAVING SELECTIVE INHIBITORY ACTION ON KRAS OVER HRAS AND NRAS” (CHUGAI SEIYAKU KABUSHIKI KAISHA, priority 2021, published 2024)
Read-outs that look alike come from different tables or passages of the source. Where a SMILES comes first, the peptide text is derived from it. Bridges are numbered along the chain shown (N, C = ends). [ ]: non-standard residue; d: D form. The star is where a group is joined. hPhe(3-Cl-4-CF3) = N[C@@H](CCc1ccc(C(F)(F)F)c(Cl)c1)C(=O)O; NPrPhe(4-CF3) = CCCN[C@@H](Cc1ccc(C(F)(F)F)cc1)C(=O)O; NMeGly(cPent) = CN[C@H](C(=O)O)C1CCCC1; NMeD = CN[C@@H](CC(=O)O)C(=O)O; NMeL = CN[C@@H](CC(C)C)C(=O)O; Morpholide = C1CN(*)CCO1; Ac5c = NC1(C(=O)O)CCCC1; Ac4c = NC1(C(=O)O)CCC1; Sar = CNCC(=O)O

Tests used:
[1] = target: GDP-bound KRAS wild-type protein (Homo sapiens, UniProt P01116); assay: Binding to KRAS by surface plasmon resonance (SPR), Single Cycle Kinetics; conditions: GDP-bound KRAS wild-type protein, read-out: KRAS KD
Sequence of GDP-bound KRAS wild-type protein (P01116 whole entry): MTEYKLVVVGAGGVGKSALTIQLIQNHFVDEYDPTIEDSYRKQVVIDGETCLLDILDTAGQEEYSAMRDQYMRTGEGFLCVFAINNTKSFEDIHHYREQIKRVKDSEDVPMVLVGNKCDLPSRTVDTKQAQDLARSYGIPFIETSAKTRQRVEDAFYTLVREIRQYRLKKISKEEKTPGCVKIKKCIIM

[2] = target: GDP-bound NRAS wild-type protein (Homo sapiens, UniProt P01111); assay: Binding to NRAS by surface plasmon resonance (SPR), Single Cycle Kinetics; conditions: for NRAS/KRAS (ratio of KD value with respect to NRAS to KD value with respect to KRAS) / NRAS/KRAS (ratio of KD value for NRAS to KD value for KRAS): SPR, GDP-bound NRAS wild-type protein vs GDP-bound KRAS wild-type protein; for NRAS/KRAS (ratio of KD value with respect to GDP-bound NRAS wild-type protein to KD value with respect to KRAS): SPR KD ratio NRAS/KRAS, class symbols
Sequence of GDP-bound NRAS wild-type protein (P01111 whole entry): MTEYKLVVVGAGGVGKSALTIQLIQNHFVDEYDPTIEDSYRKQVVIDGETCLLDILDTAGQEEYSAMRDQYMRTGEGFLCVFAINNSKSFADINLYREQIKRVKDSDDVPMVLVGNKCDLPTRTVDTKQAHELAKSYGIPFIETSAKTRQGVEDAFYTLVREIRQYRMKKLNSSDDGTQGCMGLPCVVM

[3] = target: GDP-bound HRAS wild-type protein (Homo sapiens, UniProt P01112); assay: Binding to HRAS by surface plasmon resonance (SPR), Single Cycle Kinetics; conditions: for HRAS/KRAS (ratio of KD value with respect to HRAS to KD value with respect to KRAS) / HRAS/KRAS (ratio of KD value for HRAS to KD value for KRAS): SPR, GDP-bound HRAS wild-type protein vs GDP-bound KRAS wild-type protein; for HRAS/KRAS (ratio of KD value with respect to GDP-bound HRAS wild-type protein to KD value with respect to KRAS): SPR KD ratio HRAS/KRAS, class symbols
Sequence of GDP-bound HRAS wild-type protein (P01112 whole entry): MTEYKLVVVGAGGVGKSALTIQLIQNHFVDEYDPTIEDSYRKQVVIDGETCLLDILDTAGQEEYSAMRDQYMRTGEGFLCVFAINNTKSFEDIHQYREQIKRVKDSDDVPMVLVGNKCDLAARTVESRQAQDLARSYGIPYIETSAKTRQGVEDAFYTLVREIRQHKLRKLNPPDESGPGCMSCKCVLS

[4] = SPR Single Cycle Kinetics, 1:1 binding model

Kd [1, 4]	Kd ([1]; SPR, Single Cycle Kinetics)	Compound	NRAS/KRAS (ratio of KD value with respect to NRAS to KD value with respect to KRAS) [2]	HRAS/KRAS (ratio of KD value with respect to HRAS to KD value with respect to KRAS) [3]	NRAS/KRAS (ratio of KD value for NRAS to KD value for KRAS) [2]	HRAS/KRAS (ratio of KD value for HRAS to KD value for KRAS) [3]	NRAS/KRAS (ratio of KD value with respect to GDP-bound NRAS wild-type protein to KD value with respect to KRAS) [2]	HRAS/KRAS (ratio of KD value with respect to GDP-bound HRAS wild-type protein to KD value with respect to KRAS) [3]
0.42 nM	–	CCCN1C(=O)CN(C)C(=O)CN(C)C(=O)[C@H]([C@@H](C)CC)NC(=O)[C@H](CC(C)C)N(C)C(=O)C[C@@H](C(=O)N2CCOCC2)NC(=O)[C@H](C2CCCC2)N(C)C(=O)C2(CCCC2)NC(=O)[C@@H]2CCCN2C(=O)[C@H](CCc2ccc(C(F)(F)F)c(Cl)c2)NC(=O)CN(C)C(=O)[C@@H]1Cc1ccc(C(F)(F)F)cc1 [PP0146] ([NMeL]I[Sar][Sar][NPrPhe(4-CF3)][Sar][hPhe(3-Cl-4-CF3)]P[Ac5c][NMeGly(cPent)]D-Morpholide; lactam N-11)	–	–	B (a compound having 3 or more and less than 10 is denoted as B)	B (a compound having 3 or more and less than 10 is denoted as B)	–	–
0.99 nM	–	CC[C@H](C)[C@@H]1NC(=O)[C@H](CC(F)(F)F)N(C)C(=O)C[C@@H](C(=O)N2CCOCC2)N(C)C(=O)[C@H](C2CCCC2)N(C)C(=O)C2(CCCC2)NC(=O)[C@@H]2CCCN2C(=O)[C@H](CCc2cc(F)c(C(F)(F)F)c(F)c2)NC(=O)CN(C)C(=O)[C@H](Cc2ccc(C(F)(F)F)cc2)N2CCCCC[C@@H](C2=O)N(C)C(=O)CN(C)C1=O [PP0520]	B (a compound having 3 or more and less than 10 is denoted as B)	B (a compound having 3 or more and less than 10 is denoted as B)	–	–	–	–
0.13 nM	–	CCCN1C(=O)CN(C)C(=O)CN(C)C(=O)[C@H]([C@@H](C)CC)NC(=O)[C@H](CC(C)C)N(C)C(=O)C[C@@H](C(=O)N2CCOCC2)N(C)C(=O)[C@H](C2CCCC2)N(C)C(=O)C2(CCC2)NC(=O)[C@@H]2CCCN2C(=O)[C@H](CCc2ccc(C(F)(F)F)c(Cl)c2)NC(=O)CN(C)C(=O)[C@@H]1Cc1ccc(C(F)(F)F)cc1 [PP0197] ([NMeL]I[Sar][Sar][NPrPhe(4-CF3)][Sar][hPhe(3-Cl-4-CF3)]P[Ac4c][NMeGly(cPent)][NMeD]-Morpholide; lactam N-11)	–	–	B (a compound having 3 or more and less than 10 is denoted as B)	C (A compound having a KD ratio of 0.1 or more and less than 3 is denoted as C)	–	–

Second part, the compound before the results:

Compound	Kd [1, 4]	Kd ([1]; SPR, Single Cycle Kinetics)	NRAS/KRAS (ratio of KD value with respect to NRAS to KD value with respect to KRAS) [2]	HRAS/KRAS (ratio of KD value with respect to HRAS to KD value with respect to KRAS) [3]	NRAS/KRAS (ratio of KD value for NRAS to KD value for KRAS) [2]	HRAS/KRAS (ratio of KD value for HRAS to KD value for KRAS) [3]	NRAS/KRAS (ratio of KD value with respect to GDP-bound NRAS wild-type protein to KD value with respect to KRAS) [2]	HRAS/KRAS (ratio of KD value with respect to GDP-bound HRAS wild-type protein to KD value with respect to KRAS) [3]
CCO[C@@H]1C[C@H]2C(=O)NC3(CCC(F)(F)CC3)C(=O)N(C)[C@@H](C3CCCC3)C(=O)N(C)[C@H](C(=O)N3CCOCC3)CC(=O)N(C)[C@@H](CC(C)C)C(=O)N[C@@H]([C@@H](C)CC)C(=O)N(C)CC(=O)N(C)[C@H]3CCCCCN(C3=O)[C@@H](Cc3ccc(C(F)(F)F)cc3)C(=O)N(C)CC(=O)N[C@@H](CCc3cc(F)c(C(F)(F)F)c(F)c3)C(=O)N2C1 [PP0728]	11 nM	–	B (a compound having 3 or more and less than 10 is denoted as B)	B (a compound having 3 or more and less than 10 is denoted as B)	–	–	–	–
CCO[C@@H]1C[C@H]2C(=O)NC3(CC(C)(C)C3)C(=O)N(C)[C@@H](C3CCCC3)C(=O)N(C)[C@H](C(=O)N(C)CC)CC(=O)N(C)[C@H]3CCCC/C=C/c4ccc(cc4)C[C@@H](C(=O)N(C)CC(=O)N[C@@H](CCc4ccc(Cl)c(Cl)c4)C(=O)N2C1)N1CC/C=C\C[C@@H](C1=O)N(C)C(=O)CN(C)C(=O)[C@H]([C@@H](C)CC)NC3=O [PP2592]	0.13 nM	–	–	–	–	–	A (a compound having 10 or more and less than 20 is denoted as A)	A (a compound having 10 or more and less than 20 is denoted as A)
CCC[C@H]1C(=O)N[C@@H]([C@@H](C)CC)C(=O)N(C)CC(=O)N(C)[C@H]2C/C=C\CCN(C2=O)[C@@H](Cc2ccc(C)cc2)C(=O)N(C)CC(=O)N[C@@H](CCc2ccc3sc(F)c(C)c3c2)C(=O)N2C[C@H](OCC)C[C@H]2C(=O)NC2(CC(C)(C)C2)C(=O)N(C)[C@@H](C2CCCC2)C(=O)N(C)[C@H](C(=O)N(C)C)CC(=O)N1C [PP2949]	0.059 nM	–	–	–	–	–	A (a compound having 10 or more and less than 20 is denoted as A)	A (a compound having 10 or more and less than 20 is denoted as A)
CCO[C@@H]1C[C@H]2C(=O)NC3(CCC3)C(=O)N(C)[C@@H](C3CCCC3)C(=O)N(C)[C@H](C(=O)N(C)C)CC(=O)N(C)[C@@H](Cc3cccc(F)c3)C(=O)N[C@@H]([C@@H](C)CC)C(=O)N(C)CC(=O)N(C)[C@H]3CCCCCN(C3=O)[C@@H](Cc3ccc(C(F)(F)F)cc3)C(=O)N(C)CC(=O)N[C@@H](CCc3cc(F)c(C(F)(F)F)c(F)c3)C(=O)N2C1 [PP0935]	–	0.43 nM	–	–	B (a compound having 3 or more and less than 10 is denoted as B)	B (a compound having 3 or more and less than 10 is denoted as B)	–	–
